{"source": "paper PMC4368888", "about": "“Preclinical to Clinical Translation of CNS Transporter Occupancy of TD-9855, a Novel Norepinephrine and Serotonin Reuptake Inhibitor” (International Journal of Neuropsychopharmacology, 2015)", "key": {"NET [1]": {"molecular_target": "T1, NET (Rattus norvegicus, UniProt Q63380)", "T1 construct": "from tissue; host or cells: rat lumbar spinal cord after oral dosing", "T1 sequence (Q63380 1-617)": "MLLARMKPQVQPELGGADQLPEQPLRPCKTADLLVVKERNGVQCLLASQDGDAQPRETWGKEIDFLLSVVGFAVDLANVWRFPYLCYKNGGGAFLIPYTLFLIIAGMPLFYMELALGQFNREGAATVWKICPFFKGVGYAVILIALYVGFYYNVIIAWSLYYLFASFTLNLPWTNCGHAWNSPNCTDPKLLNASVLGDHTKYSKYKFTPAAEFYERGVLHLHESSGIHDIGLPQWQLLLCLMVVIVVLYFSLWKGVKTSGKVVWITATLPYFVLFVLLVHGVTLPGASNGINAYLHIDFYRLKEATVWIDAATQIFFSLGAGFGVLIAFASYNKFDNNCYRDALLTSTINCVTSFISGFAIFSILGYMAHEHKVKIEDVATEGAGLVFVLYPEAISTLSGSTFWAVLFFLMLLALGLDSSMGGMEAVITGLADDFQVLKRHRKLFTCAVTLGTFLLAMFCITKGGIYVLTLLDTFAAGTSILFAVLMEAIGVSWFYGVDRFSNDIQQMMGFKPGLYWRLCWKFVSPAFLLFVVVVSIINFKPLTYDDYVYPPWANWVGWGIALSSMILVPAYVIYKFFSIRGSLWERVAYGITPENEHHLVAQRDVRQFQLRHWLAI", "assay": "Ex vivo NET occupancy in rat spinal cord with PK/PD modeling", "settings": "estimate (% CV)", "protocol": "(§1) TD-9855 Rat Administration and Sampling — Rats (n = 6/timepoint/dose level) received a single oral dose of TD-9855 (0.3, 1, 5, 10, 30, and 60mg/kg) and were euthanized by decapitation at specified time points (0.5, 2, 4, 6, and 8hr for 5mg/kg dose level; 2hr for 0.3, 1, 10, 30, and 60mg/kg dose levels) post-administration. Spinal cords were dissected for ex vivo transporter occupancy and PK assessments from the same animals. The spinal cord was harvested by hydraulic extrusion using phosphate-buffered saline, and the lumbar segment dissected and frozen on dry ice. The remaining spinal cord segments were collected and homogenized in water (25% w/w) for PK analysis. All samples were stored at -80 °C until analysis.\n(§2) A kinetic radioligand binding assay was used to determine NET and SERT occupancy in rat spinal cord, as described previously ([Bourdet et al., 2012]).\n(§3) Rat PK/PD Modeling — PK/PD parameters were estimated by a compartmental modeling approach (WinNonlin Version 5.0.1, Pharsight Corporation). One- and two-compartment PK models with first-order absorption and elimination were evaluated. The one-compartment model was selected. The pharmacodynamic model was an effect compartment Emax model linked directly to the central PK compartment (WinNonlin PK Model 3, PD Model 101). Selection of models was based upon best fit in terms of visual inspection, Akaike Information Criteria, and weighted residual sum of squares using the Gauss-Newton minimization method. The following parameters were estimated:\n(§4) Emax (% occupancy): Maximal SERT or NET occupancy in spinal cord\n(§5) keo (hr^-1): First-order equilibration rate constant between the central pharmacokinetic compartment and the pharmacodynamic effect compartment"}, "SERT": {"molecular_target": "T2, SERT (Rattus norvegicus, UniProt P31652)", "T2 construct": "from tissue; host or cells: rat lumbar spinal cord after oral dosing", "T2 sequence (P31652 whole entry)": "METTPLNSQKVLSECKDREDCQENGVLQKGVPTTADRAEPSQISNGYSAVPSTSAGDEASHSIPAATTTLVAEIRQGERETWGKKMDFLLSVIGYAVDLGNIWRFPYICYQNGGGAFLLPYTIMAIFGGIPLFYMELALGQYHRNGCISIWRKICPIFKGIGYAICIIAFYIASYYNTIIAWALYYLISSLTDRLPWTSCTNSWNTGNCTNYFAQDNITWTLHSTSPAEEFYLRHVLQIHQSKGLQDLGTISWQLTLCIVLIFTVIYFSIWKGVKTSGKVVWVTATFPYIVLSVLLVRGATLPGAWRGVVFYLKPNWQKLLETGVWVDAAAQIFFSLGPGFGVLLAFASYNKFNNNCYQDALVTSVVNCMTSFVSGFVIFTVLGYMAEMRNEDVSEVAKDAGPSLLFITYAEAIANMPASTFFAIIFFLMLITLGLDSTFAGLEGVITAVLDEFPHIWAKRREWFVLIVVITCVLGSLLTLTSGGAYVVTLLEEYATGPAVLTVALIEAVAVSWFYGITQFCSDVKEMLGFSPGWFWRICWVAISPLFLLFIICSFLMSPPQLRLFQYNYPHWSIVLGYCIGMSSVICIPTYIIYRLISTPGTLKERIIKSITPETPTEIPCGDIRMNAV", "assay": "Ex vivo SERT occupancy in rat spinal cord with PK/PD modeling", "settings": "estimate (% CV)", "protocol": "as §1, §2, §3, §4, §5"}, "in vivo": {"assay": "in vivo", "settings": "Sprague Dawley, rat, po", "protocol": "as §1, §3\nk01 (hr^-1): First-order absorption rate constant.\nV/F (L/kg): Volume of the central compartment divided by oral bioavailability\nk10 (hr^-1): Elimination rate constant from the central compartment"}, "[2]": {"assay": "Safety and tolerability in Phase 1 PET study", "format": "in vivo, human", "settings": "healthy males, single oral dose 4-20mg", "protocol": "All adverse events (AEs) were assessed by the investigator and recorded in the case report form, including the dates of onset and resolution, severity, relationship to study drug, outcome, and action taken with study medication after the dosing of TD-9855 through the follow-up visit. Safety was assessed during the entire study by measurement of vital signs, laboratory tests, and evaluation of ECGs."}, "[3]": {"settings": "human, data on file, cited from earlier work"}, "[4]": {"design": "method as in Theravance Biopharma US, Inc., data on file", "settings": "human; ref Theravance Biopharma US, Inc., data on file; cited from earlier work"}, "P-gp": {"system": "P-gp", "design": "method as in Theravance Biopharma US, Inc., data on file", "settings": "ref Theravance Biopharma US, Inc., data on file; cited from earlier work"}, "NET [5]": {"molecular_target": "T3, NET (Homo sapiens, UniProt P23975)", "T3 sequence (P23975 whole entry)": "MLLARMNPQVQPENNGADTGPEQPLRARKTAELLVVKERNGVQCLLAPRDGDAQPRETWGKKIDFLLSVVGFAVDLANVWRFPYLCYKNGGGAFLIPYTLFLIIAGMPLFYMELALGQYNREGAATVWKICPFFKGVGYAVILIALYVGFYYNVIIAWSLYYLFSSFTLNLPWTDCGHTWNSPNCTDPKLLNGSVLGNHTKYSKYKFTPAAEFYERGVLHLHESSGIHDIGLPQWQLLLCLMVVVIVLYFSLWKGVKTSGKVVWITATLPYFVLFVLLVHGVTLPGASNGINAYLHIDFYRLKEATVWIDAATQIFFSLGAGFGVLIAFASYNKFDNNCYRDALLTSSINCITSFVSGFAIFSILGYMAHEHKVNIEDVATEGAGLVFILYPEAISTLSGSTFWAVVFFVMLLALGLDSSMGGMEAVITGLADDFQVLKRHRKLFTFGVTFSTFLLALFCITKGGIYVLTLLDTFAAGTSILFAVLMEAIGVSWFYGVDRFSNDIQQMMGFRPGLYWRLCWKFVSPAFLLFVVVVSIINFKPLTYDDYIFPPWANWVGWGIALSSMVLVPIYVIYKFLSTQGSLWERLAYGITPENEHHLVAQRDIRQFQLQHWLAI", "assay": "[3H]-NE uptake inhibition in HEK293-hNET cells", "format": "cell-based", "design": "expressed in transfected cells; host or cells: HEK293 (HEK293-hNET), stably transfected", "description": "(§6) The in vitro pharmacology of TD-9855 (4-[2-(2, 4, 6-trifluorophenoxymethyl)phenyl]piperidine; Figure 1) at human recombinant and rat native monoamine transporters was characterized as described previously ([Tsuruda et al., 2010]; [Shen et al., 2013]). Radioligands were sourced commercially (Perkin Elmer Life Sciences or GE Healthcare Life Sciences). Briefly, membranes prepared from HEK293 (Human Embryonic Kidney 293) cells stably-transfected with human recombinant SERT (HEK293-hSERT), NET (HEK293-hNET), or DAT ([…]) were incubated for 1hr at 22°C in the absence, or presence, of TD-9855 and [^3H]-citalopram (1.0nM) for SERT, [^3H]-nisoxetine (2.0nM) for NET, and [^3H]-WIN35428 (3.0nM) for DAT in 50mM Tris-HCl, 120mM NaCl, 5mM KCl, 0.025% BSA, 100 μM ascorbic acid, pH 7.4. Rat cortical membrane preparations were incubated with [^3H]-citalopram (2.0nM) for SERT or [^3H]-nisoxetine (4.0nM) for NET for 1hr at 22°C. […] Binding and uptake assays were terminated by rapid filtration and radioactivity, determined by liquid scintillation spectroscopy."}, "NET [6]": {"molecular_target": "T3, NET", "assay": "[3H]-nisoxetine equilibrium binding, HEK293-hNET membranes", "design": "expressed in transfected cells; host or cells: HEK293 (HEK293-hNET), stably transfected", "settings": "mean (95% CI), 3 to 9 experiments, read-out: Transporter Binding: pKi NET (converted)", "description": "as §6"}, "[7]": {"settings": "rat spinal cord, oral 0.3-60mg/kg"}, "[8]": {"settings": "rat, equilibration rate constant plasma to effect compartment"}}}
{"smiles": "Fc1cc(F)c(OCc2ccccc2C2CCNCC2)c(F)c1", "note": "[TD-9855, 4-[2-(2,4,6-trifluorophenoxymethyl)phenyl]piperidine]", "values": [{"measurement": "Emax (% Occupancy), NET", "setting": "NET [1]; [7]", "value": "92.0 (19) % Occupancy"}, {"measurement": "EC50", "setting": "NET [1]; rat spinal cord, plasma EC50", "value": 36.4, "unit": "nM"}, {"measurement": "keo, NET", "setting": "NET [1]; [8]", "value": "1.78 (57) hr^-1"}, {"measurement": "Emax (% Occupancy), SERT", "setting": "SERT; [7]", "value": "79.0 (53) % Occupancy"}, {"measurement": "EC50", "setting": "SERT; rat spinal cord, plasma EC50", "value": 158, "unit": "nM"}, {"measurement": "keo, SERT", "setting": "SERT; [8]", "value": "11.0 (86) hr^-1"}, {"measurement": "K01, first-order absorption rate constant", "setting": "in vivo", "value": "0.777 (108) hr^-1"}, {"measurement": "V/F", "setting": "in vivo", "value": "54.8 (66) L/kg"}, {"measurement": "k el", "setting": "in vivo", "value": "8.86e-05", "unit": "s⁻¹"}, {"measurement": "clinical laboratory values, physical examination, vital signs, ECG", "setting": "[2]", "value": "No clinically significant abnormalities"}, {"measurement": "deaths and adverse events", "setting": "[2]", "value": "No deaths, severe AEs, or AEs occurred"}, {"measurement": "overall tolerability", "setting": "[2]", "value": "well tolerated"}, {"measurement": "Tmax", "setting": "[3]; ascending single dose studies, ref Theravance Biopharma US, Inc.", "value": "6 to 12", "unit": "h"}, {"measurement": "pharmacokinetic (plasma) half-life", "setting": "[3]; ref Theravance Biopharma US, Inc.", "value": "30 to 40", "unit": "h"}, {"measurement": "accumulation in plasma after repeated administration", "setting": "[3]; ref Theravance", "value": "3- to 4 fold"}, {"measurement": "plasma protein binding", "setting": "[4]", "value": 79.1, "unit": "%"}, {"measurement": "P-gp substrate status", "setting": "P-gp", "value": "non-P-gp substrate"}, {"measurement": "selectivity for inhibition of NET over SERT", "setting": "NET [5]; human transporters, neurotransmitter uptake", "value": 4, "unit": "fold"}, {"measurement": "inhibitory selectivity for NE", "setting": "NET [5]; uptake in vitro, human and rat transporters", "value": "4- to 10 fold"}, {"measurement": "Ki", "setting": "NET [6]", "value": 1.58, "unit": "nM"}]}
